Assay results: patent US20120009593A1, “ANALYSIS METHOD FOR THE IN VITRO DIAGNOSIS OF BENIGN PROSTATIC HYPERPLASIA (BPH) IN DOGS BY ASSAYING CANINE PROSTATE SPECIFIC ESTERASE, AND BPH TREATMENT FOLLOW UP” (VIRBAC SA, priority 2009, published 2012)
“And” between values parts separate entries of the source, which are not always exact repeats. Equal entries are not always repeated.

What was measured:
[1] = tested on: dogs with signs of BPH; experiment: Anti-androgen treatment follow up: prostate size by digital rectal examination; format: in vivo, dog; conditions: all five treated dogs, after treatment
[2] = tested on: dogs with signs of BPH; experiment: Anti-androgen treatment follow up: serum CPSE level in treated dogs; format: in vivo, dog
Protocol: The CPSE concentration in the serum or plasma samples was determined by sandwich ELISA. 96-well microplates (Stripwell Costar/Corning, N.Y., USA) were coated overnight at +4° C. with monoclonal or polyclonal anti-CPSE antibodies, at a concentration of 5 μg/ml in a carbonate buffer at pH 9.6. After 4 washes, the wells were incubated for 1 hour at 37° C. with a saline phosphate buffer at pH 7.2, while adding 5% bovine serum albumin. Finally, the plates were incubated for 30 minutes at room temperature with a saline phosphate buffer at pH 7.2 to which 10% sucrose was added. Once emptied, the microplates were dried overnight under vacuum, and then packaged in the presence of a desiccant until use.
The assay of samples is carried out by dispensing […] of serum or plasma (heparinized plasma or EDTA plasma) into each of the wells. After 1 hour at 37° C., the microplate is washed. 100 μl of monoclonal or polyclonal anti-CPSE antibodies conjugated to peroxidase are dispensed. The wells are incubated for 1 hr at 37° C. and washed again. The antibodies remaining attached to the walls are developed by adding 3,3′,5,5′tetramethyl benzidine. After completion of the reaction, the absorbance is read at 450 nm.
Five dogs with signs of BPH (see inclusion criteria above) were treated with osaterone acetate (YPOZANE®, Virbac). This molecule is an anti-androgen, which acts on the prostatic parenchyma. The CPSE level was measured at days D15 and D0. The dogs were treated as recommended and were given from 0.25-0.5 mg/kg/day of osaterone acetate, for a period of 7 days. Serum was collected prior to any treatment and after 15 days. The CPSE level was measured in the different samples.
Dogs with signs of PBH were treated with osaterone acetate, as recommended by the manufacturer. The serum CPSE level in these dogs was measured before the treatment and after 15 days.

Structure (SMILES): CC(=O)O[C@]1(C(C)=O)CC[C@H]2[C@@H]3C=C(Cl)C4=CC(=O)OC[C@]4(C)[C@H]3CC[C@@]21C [osaterone acetate]
- size of the prostate by digital rectal examination [1]: return to a normal size of the prostate
- change in serum CPSE level between before treatment and treatment completed ([2]; five dogs with signs of BPH, D0 vs D15): decrease in the serum CPSE level
- CPSE (ng/ml), D + 15 ([2]; serum, individual Dogs 1-5 with signs of BPH, D+15, 0.25-0.5 mg/kg/day for 7 days): 15 ng/mL and 21 ng/mL and 40 ng/mL and 10 ng/mL and 36 ng/mL
- CPSE (ng/ml), Visit 2 ([2]; serum, individual dogs C1-C5 with signs of BPH, 15 days after first sampling, 0.25-0.5 mg/kg/day for 7 days): 15 ng/mL and 21 ng/mL and 40 ng/mL and 10 ng/mL and 36 ng/mL
